{"source": "patent US20240423983A1", "about": "“ENHANCEMENT OF CD47 BLOCKADE THERAPY WITH DHFR INHIBITORS” (PF Argentum IP Holdings LLC, priority 2021, published 2024)", "key": {"[1]": {"system": "human T cell lymphoma cell line HH", "experiment": "macrophage phagocytosis assay on human lymphoma cell line HH", "assay_type": "cell-based", "details": "HH cells (CD47-sensitive), 2 h co-culture with macrophages; FIG. 1; vs single agents or no-treatment control", "protocol": "(§1) A macrophage phagocytosis assay was conducted in order to assess the effects of the combination of a DHFRi and CD47 blocking agent as compared to the agents individually on macrophage phagocytosis of human lymphoma cells.\n(§2) For the assay, the DHFRi was pralatrexate, and the CD47 blocking agent was an Fc fusion protein comprising soluble SIRPα (TTI-621). The lymphoma cells were human T cell lymphoma cell lines HH (ATCC Ref. CRL-2105) (a mature T cell line from peripheral blood of a patient with aggressive cutaneous T cell leukemia/lymphoma) or H9 (ATCC Ref. HTB-176) (a cutaneous T cell lymphoma). Thus, there were 4 experimental conditions for each lymphoma cell type: A) no treatment; B) pralatrexate only; C) TTI-621 (SIRPα-IgG1 Fc) only; and D) combination of pralatrexate and TTI-621.\n(§3) PBMC from normal donors were purchased from BioIVT and informed consent was obtained from all donors. CD14+ monocytes were isolated from PBMCs by positive selection using human monocyte isolation kit. […] Phagocytosis was assessed as % VPD450+ cells of live, single CD14+CD11b+ macrophages by flow cytometry."}, "[2]": {"system": "human T cell lymphoma cell line H9", "experiment": "macrophage phagocytosis assay on human lymphoma cell line H9", "assay_type": "cell-based", "details": "H9 cells (CD47-insensitive), 2 h co-culture with macrophages; FIG. 2; vs single agents or no-treatment control", "protocol": "as §1, §2, §3"}, "[3]": {"system": "human non-small cell lung cancer (NSCLC) xenograft", "details": "2 mg/kg pralatrexate-treated group; cited from earlier work"}, "NCI-H460 NSCLC xenograft": {"system": "NCI-H460 NSCLC xenograft", "details": "cited from earlier work"}}, "note": "Like-named read-outs stand apart in the source and are kept apart here.", "data": [{"molecule": "TTI-621: Fc fusion protein comprising soluble SIRPα (SIRPα-IgG1 Fc), SEQ ID NO: 9; CD47 blocking agent", "values": [{"measurement": "percentage phagocytosis (% VPD450+ cells of live, single CD14+CD11b+ macrophages)", "setting": "[1]", "result": "increased phagocytosis"}, {"measurement": "percentage phagocytosis (% VPD450+ cells of live, single CD14+CD11b+ macrophages)", "setting": "[2]", "result": "not present"}]}, {"molecule": "C#CCC(Cc1cnc2nc(N)nc(N)c2n1)c1ccc(C(=O)N[C@@H](CCC(=O)O)C(=O)O)cc1", "note": "(some centres unmarked) [pralatrexate, Pralatrexate]", "values": [{"measurement": "tumor growth inhibition (TGI)", "setting": "[3]", "result": 38, "unit": "%"}, {"measurement": "tumor growth inhibition (TGI)", "setting": "NCI-H460 NSCLC xenograft; 1 mg/kg", "result": 34, "unit": "%"}, {"measurement": "tumor growth inhibition (TGI)", "setting": "NCI-H460 NSCLC xenograft; 2 mg/kg", "result": 52, "unit": "%"}]}]}
